Experimental data published in patent US10040802B2, “Thienopyrazine inhibitors of IRAK4 activity” (MERCK SHARP & DOHME CORP., priority 2015, dated 2018).
Where a name gives a salt, the structure may show the parent alone.

These molecules were tested against GST tagged IRAK4 (Homo sapiens (Human), UniProt Q9NWZ3) (assay: IRAK4 Kinase Assay (IMAP fluorescence polarization)). Settings: 0.5 nM GST tagged IRAK4, 100 μM ATP, 30 minutes at 25° C.
Assay type: biochemical
Method: The kinase activity of IRAK4 is determined by its ability to catalyze the phosphorylation of a fluorescent polypeptide substrate. The extent of phosphorylation is measured using the IMAP technology (Molecular Devices) where the phosphorylated fluorescent substrate binds to the large M(III)-based nanoparticles which reduces the rotational speed of the substrate and thus increases its fluorescent polarization (FP).
20 μL reaction mixture contains 10 mM TriHCl, pH 7.2, 0.5 nM GST tagged IRAK4 (SignalChem), 100 nM fluorescent peptide substrate (RP7030, Molecular Devices), 100 μM ATP, 1 mM DDT, 1 mM MgCl2, and 0.01% Tween 20. The reaction is initiated by the addition of ATP. After incubation for 30 minutes at 25° C., 60 μL of Progressive IMAP Reagent (Molecular Devices) is added to stop the reaction. Change in RP7030's FP is determined by a FP reader (Analyst HT, LJL BioSystems).

Chain of GST tagged IRAK4 (Q9NWZ3 whole entry): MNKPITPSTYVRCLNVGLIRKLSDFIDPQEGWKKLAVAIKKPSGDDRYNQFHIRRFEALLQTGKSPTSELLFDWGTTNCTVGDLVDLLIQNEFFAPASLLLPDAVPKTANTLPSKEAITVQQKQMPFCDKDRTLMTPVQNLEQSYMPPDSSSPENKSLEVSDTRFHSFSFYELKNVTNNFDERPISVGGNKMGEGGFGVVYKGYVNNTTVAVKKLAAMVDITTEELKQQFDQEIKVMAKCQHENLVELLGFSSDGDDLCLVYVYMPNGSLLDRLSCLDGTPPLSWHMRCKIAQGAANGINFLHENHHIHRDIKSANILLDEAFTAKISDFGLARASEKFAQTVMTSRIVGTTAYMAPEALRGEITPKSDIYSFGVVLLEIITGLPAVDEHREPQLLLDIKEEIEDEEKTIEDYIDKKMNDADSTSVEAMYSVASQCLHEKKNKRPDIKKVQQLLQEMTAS

IC50 [nM] | Compound
0.2 | Cn1cc(NC(=O)c2csc3ncc(N4CCC[C@@H](N)C4)nc23)c(C(F)F)n1 [Example 24, 2[(3R)-3-aminopiperidin-1-yl] N-[3-(difluoromethyl)-1-methyl-1H-pyrazol-4-yl]thieno[2,3-b] pyrazine-7-carboxamide trifluoroacetate]
0.2 | Cn1cc(NC(=O)c2csc3ncc(N[C@@H]4CCCC[C@@H]4N)nc23)c(C(F)F)n1 [Example 25, 2-{[(1R,2S)-2-aminocyclohexyl]amino}-N-[3-(difluoromethyl)-1-methyl-1H-pyrazol-4-yl]thieno[2,3-b] pyrazine-7-carboxamide trifluoroacetate]
26 | Cn1cc(NC(=O)c2csc3ncc(N4CCCNCC4)nc23)c(C#N)n1 [Example 28, N-(3-cyano-1-methyl-1H-pyrazol-4-yl)-2-(1,4-diazepan-1-yl)thieno[2,3-b] pyrazine-7-carboxamide trifluoroacetate]
107 | Cn1cc(NC(=O)c2csc3ncc(N[C@@H]4CCCC(F)(F)[C@@H]4N)nc23)c(Br)n1 [Example 29, 2-{[(1R,2R)-2-amino-3,3-difluorocyclohexyl]amino}-N-(3-(bromo-1-methyl-1H-pyrazol-4-yl)thieno[2,3-b]pyrazine-7-carboxamide trifluoroacetate]
0.6 | Cn1cc(NC(=O)c2csc3ncc(N[C@@H]4CCCC[C@@H]4N)nc23)c(Br)n1 [Example 30, 2-{[(1R,2S)-2-aminocyclohexyl]amino}-N-(3-bromo-1-methyl-1H-pyrazol-4-yl)thieno[2,3-b] pyrazine-7-carboxamide trifluoroacetate]
0.4 | Cn1cc(NC(=O)c2csc3ncc(N[C@@H]4CCCNC4)nc23)c(C(F)F)n1 [Example 32, N-[3-(difluoromethyl)-1-methyl-1H-pyrazol-4-yl]-2-[(3R)-piperidin-3-ylamino]thieno [2,3-b]pyrazine-7-carboxamide]
0.3 | Cn1cc(NC(=O)c2csc3ncc(N[C@@H]4CCCC[C@@H]4N)nc23)c(Cl)n1 [Example 35, 2-{[(1R,2S)-2-aminocyclohexyl]amino}-N-(3-chloro-1-methyl-1H-pyrazol-4-yl)thieno[2,3-b] pyrazine-7-carboxamide trifluoroacetate]
50 | Cn1cc(NC(=O)c2csc3ncc(N[C@@H]4CCCC(F)(F)[C@@H]4N)nc23)c(C#N)n1 [Example 36, 2-{[(1R,2R)-2-amino-3,3-difluorocyclohexyl]amino}-N-(3-cyano-1-methyl-1H-pyrazol-4-yl]thieno[2,3-b] pyrazine-7-carboxamide trifluoroacetate]
0.4 | Cn1cc(NC(=O)c2csc3ncc(N[C@@H]4CCCC[C@@H]4N)nc23)c(C#N)n1 [Example 37, 2-{[(1R,2S)-2-aminocyclohexyl]amino}-N-(3-cyano-1-methyl-1H-pyrazol-4-yl)thieno[2,3-b] pyrazine-7-carboxamide trifluoroacetate]
32 | Cn1cc(NC(=O)c2csc3ncc(N[C@@H]4CCCC(F)(F)[C@@H]4N)nc23)c(C(F)F)n1 [Example 39, 2-{[(1R,2R)-2-amino-3,3-difluorocyclohexyl]amino}-N-[3-(difluoromethyl)-1-methyl-1H-pyrazol-4-yl]thieno[2,3-b] pyrazine-7-carboxamide]
64 | Cn1cc(NC(=O)c2csc3ncc(N[C@@H]4CCCC(F)(F)[C@@H]4N)nc23)c(Cl)n1 [Example 43, 2-{[(1R,2R)-2-amino-3,3-difluorocyclohexyl]amino}-N-(3-chloro-1-methyl-1H-pyrazol-4-yl)thieno[2,3-b] pyrazine-7-carboxamide trifluoroacetate]
38 | O=C(Nc1cscc1C(F)F)c1csc2ncc(N3CCCNCC3)nc12 [Example 47, 2-(1,4-diazepan-1-yl)-N-[4-(difluoromethyl)thiophen-3-yl] thieno[2,3-b] pyrazine-7-carboxamide trifluoroacetate]
346 | O=C(Nc1cscc1Br)c1csc2ncc(N3CCCNCC3)nc12 [Example 48, N-(4-bromothiophen-3-yl)-2-(1,4-diazepan-1-yl)thieno[2,3-b] pyrazine-7-carboxamide trifluoroacetate]
0.7 | N[C@H]1CCCC[C@H]1Nc1cnc2scc(C(=O)Nc3cscc3C(F)F)c2n1 [Example 50, 2-{[(1R,2S)-2-aminocyclohexyl]amino}-N-(4-(difluoromethyl)thiophen-3-yl] thieno[2,3-b] pyrazine-7-carboxamide trifluoroacetate]
1160 | O=C(Nc1ccsc1Br)c1csc2ncc(N3CCCNCC3)nc12 [Example 51, N-(2-bromothiophen-3-yl)-2-(1,4-diazepan-1-yl)thieno[2,3-b] pyrazine-7-carboxamide trifluoroacetate]
585 | O=C(Nc1ccsc1Cl)c1csc2ncc(N3CCCNCC3)nc12 [Example 52, N-(2-chlorothiophen-3-yl)-2-(1,4-diazepan-1-yl)thieno[2,3-b] pyrazine-7-carboxamide trifluoroacetate]
0.6 | N[C@H]1CCCC[C@H]1Nc1cnc2scc(C(=O)Nc3cscc3Br)c2n1 [Example 53, 2-{[(1R,2S)-2-amino-cyclohexyl]amino}-N-(4-bromothiophen-3-yl)thieno[2,3-b] pyrazine-7-carboxamide trifluoroacetate]
1 | N[C@H]1CCCC[C@H]1Nc1cnc2scc(C(=O)Nc3ccsc3Br)c2n1 [Example 54, 2-{[(1R,2S)-2-amino-cyclohexyl]amino}-N-(2-bromothiophen-3-yl)thieno[2,3-b] pyrazine-7-carboxamide trifluoroacetate]
189 | N#Cc1cscc1NC(=O)c1csc2ncc(N3CCCNCC3)nc12 [Example 55, N-(4-cyanothiophen-3-yl)-2-(1,4-diazepan-1-yl)thieno[2,3-b] pyrazine-7-carboxamide trifluoroacetate]
0.6 | N[C@H]1CCCC[C@H]1Nc1cnc2scc(C(=O)Nc3ccsc3Cl)c2n1 [Example 56, 2-{[(1R,2S)-2-amino-cyclohexyl]amino}-N-(2-chlorothiophen-3-yl)thieno[2,3-b] pyrazine-7-carboxamide trifluoroacetate]

Compound | IC50 [nM]
Cn1cc(NC(=O)c2csc3ncc(N4CC5CCC(C4)N5)nc23)c(C(F)F)n1 [Example 40, 2-(3,8-diazabicyclo[3.2.1]oct-3-yl)-N-[3-(difluoromethyl)-1-methyl-1H-pyrazol-4-yl]thieno[2,3-b] pyrazine-7-carboxamide trifluoroacetate] | 0.6
Cn1cc(NC(=O)c2csc3ncc(N4CC5CCC(C4)N5)nc23)c(C(F)(F)F)n1 [Example 41, 2-(3,8-diazabicyclo[3.2.1]oct-3-yl)-N-[1-methyl-3-(trifluoromethyl)-1H-pyrazol-4-yl]thieno[2,3-b] pyrazine-7-carboxamide trifluoroacetate] | 18
Cn1cc(NC(=O)c2csc3ncc(N4C5CCC4CNC5)nc23)c(C(F)F)n1 [Example 44, 2-(3,8-diazabicyclo[3.2.1]oct-8-yl)-N-[3-(difluoromethyl)-1-methyl-1H-pyrazol-4-yl]thieno[2,3-b] pyrazine-7-carboxamide trifluoroacetate] | 0.5
Cn1cc(NC(=O)c2csc3ncc(N4C5CCC4CNC5)nc23)c(C(F)(F)F)n1 [Example 45, 2-(3,8-diazabicyclo[3.2.1]oct-8-yl)-N-[1-methyl-3-(trifluoromethyl)-1H-pyrazol-4-yl]thieno[2,3-b] pyrazine-7-carboxamide trifluoroacetate] | 2
